In assay [1] the target is T1, CDK2 (Homo sapiens, UniProt P24941).
T1 construct: High-Throughput Measurement of Cellular Endogenous CDK2; endogenous in cells; host or cells: OVCAR3
As to the kind of experiment: Inhibition of CDK2: phospho-Rb (S807/811) HTRF measurement in OVCAR3 cells. Format: cell-based. To be noted: 24 h compound treatment, read-out: pRb (nM), IC50 in pRB(S807/811) assay. The protocol:
Phosphorylation of RB protein at S807/811 were measured using HTRF phospho-RB cellular kits (Cat #64RBS807PEG) from Cisbio.
On Day 1, OVCAR3 (dependent on CDK2) cells were seeded into 96-well tissue-culture treated plates at 20,000 cells/well in 200 μL and incubated overnight at 37° C. in CO2 atmosphere. On Day 2, the cells were treated with test compounds at concentrations from 0.3 to 10,000 nM using HP D300 digital dispenser. Twenty-four hours after compound treatment, cell culture media was removed by flicking the plate and tapping the plate against clean paper towel. Immediately 30 μL 1× lysis buffer was supplemented from the kit and the plate was incubated at room temperature on shaker for 30 min. After homogenization by pipetting up and down, 8 μL cell lysate from 96-well cell culture plate was transferred to 384-well small volume white detection plate. 2 μL premixed detection solution was added and the plate was covered with sealer. To prepare the detection solution, d2 conjugated-phospho-RB antibody and Eu-cryptate conjugated phosphor-RB antibody were diluted into detection buffer following manufacturer's instruction. Detection plates were incubated for 4 h at room temperature and read on ClarioStar (BMG Labtech) in TR-FRET mode (665 nM and 620 nM). The TR-FRET ratio (665 nM/620 nM) was plotted against the compound concentration and normalized to DMSO controls. Half maximal inhibition concentration (IC50) values are calculated with a four-parameter logistic fit using GraphPad Prism (version 8; La Jolla, CA).
In the table below, A indicates a IC50 of less than 0.1 μM; B indicates a IC50 of greater than or equal to 0.1 μM but less than 0.5 μM; C indicates a IC50 of greater than or equal to 0.5 μM but less than 1 μM; and D indicates a […] of greater than or equal to 1 μM but less than 10 μM.

Assay [2] concerns the target T1, CDK2. Description: CDK2 HTRF assay: cellular endogenous CDK2 level in OVCAR3 cells. Format: cell-based. To be noted: 24 hours compound treatment, read-out: DC50 (half maximal degradation concentration of CDK2). The protocol:
Effects of compounds on cellular CDK2 level can be monitored by a high-throughput HTRF assay or traditional Western Blot assay.
To determine half maximal degradation concentration (DC50) values of compounds, cellular CDK2 level was measured in 96-well format using HTRF total CDK2 cellular kit (Cat #64CDK2TPEG) from Cisbio.
On Day 1, OVCAR3 cells were seeded into 96-well tissue-culture treated plates at 20,000 cells/well in 200 μL and incubated overnight at 37° C. in CO2 atmosphere. On Day 2 cells were treated with compounds at concentration ranging from 0.3 to 10,000 nM using HP D300 digital dispenser. 24 hours after compound treatment, cell culture media was removed by flicking the plate and tapping the plate against clean paper towel. Immediately 30 μL 1× lysis buffer was supplemented from the kit and the plate was incubated at room temperature on shaker for 30 min. After homogenization by pipetting up and down, 8 μL cell lysate from 96-well cell culture plate was transferred to 384-well small volume white detection plate. 2 μL premixed detection solution was added and the plate was covered with sealer. To prepare the detection solution, d2 conjugated-CDK2 antibody and Eu-cryptate conjugated CDK2 antibody were diluted into detection buffer following manufacturer's instruction. Detection plates were incubated overnight at room temperature and read on ClarioStar (BMG Labtech) in TR-FRET mode (665 nM and 620 nM). The TR-FRET ratio (665 nM/620 nM) was plotted against the compound concentration and normalized to DMSO controls. Half maximal degradation concentration (DC50) values were calculated with a four-parameter logistic fit using GraphPad Prism (version 8; La Jolla, CA).
In the table below, A indicates a DC50 of less than 0.1 μM; B indicates a DC50 of greater than or equal to 0.1 μM but less than 0.5 μM; C indicates a DC50 of greater than or equal to 0.5 μM but less than 1 μM; and D indicates a DC50 of greater than or equal to 1 μM but less than 10 μM.

For the compound `Cn1nc(N2CCC(=O)NC2=O)c2ccc(C3CCN(Cc4cccc(S(=O)(=O)N5CC[C@H](Nc6ncc(C(F)(F)F)c(-c7cnn(CC(F)(F)F)c7)n6)[C@H](F)C5)c4)CC3)cc21` (racemic) [Example 6, Rac-1-(6-(1-(3-(((3R,4S)-3-fluoro-4-((4-(1-(2,2,2-trifluoroethyl)-1H-pyrazol-4-yl)-5-(trifluoromethyl)-pyrimidin-2-yl)amino)piperidin-1-yl)sulfonyl)-benzyl)piperidin-4-yl)-1-methyl-1H-indazol-3-yl)dihydro-pyrimidine-2,4(1H,3H)-dione], in assay [1], the IC50 is < 100 nM. Besides, the DC50 in assay [2] is < 0.1 µM.

For `O=C1CCC(c2ccc(N3CCN(Cc4cccc(S(=O)(=O)N5CCC(Nc6ncc(C(F)(F)F)c(-c7cnn(CC(F)(F)F)c7)n6)[C@H](F)C5)c4)CC3)cc2)C(=O)N1` (mixture of isomers) [Example 19, Rac-3-(4-(4-(3-(((3R,4S)-3-fluoro-4-((4-(1-(2,2,2-trifluoroethyl)-1H-pyrazol-4-yl)-5-(trifluoromethyl)pyrimidin-2-yl)-amino)piperidin-1-yl)sulfonyl)benzyl)-piperazin-1-yl)-phenyl)piperidine-2,6-dione], the IC50 in assay [1] is < 100 nM. For the same compound, in assay [2], the DC50 is < 0.1 µM. On to `O=C1CCN(c2ccc(N3CCN(Cc4cccc(S(=O)(=O)N5CC[C@@H](Nc6ncc(C(F)(F)F)c(-c7cnn(CC(F)(F)F)c7)n6)[C@@H](F)C5)c4)CC3)cc2)C(=O)N1` (racemic) [Example 28, Rac-1-(4-(4-(3-(((3R,4S)-3-fluoro-4-((4-(1-(2,2,2-trifluoroethyl)-1H-pyrazol-4-yl)-5-(trifluoromethyl)-pyrimidin-2-yl)amino)piperidin-1-yl)sulfonyl)-benzyl)piperazin-1-yl)phenyl)dihydro-pyrimidine-2,4(1H,3H)-dione], for which, in assay [1], the IC50 is 100 to 500 nM. Moreover, the DC50 in assay [2] was < 0.1 µM. Regarding `O=C1CCC(c2ccc(N3CCN(Cc4cccc(S(=O)(=O)N5CCC(Nc6ncc(C(F)(F)F)c(-c7cnn(CC(F)(F)F)c7)n6)[C@H](F)C5)c4)CC3)c(F)c2)C(=O)N1` (mixture of isomers) [Example 29, Rac-3-(3-fluoro-4-(4-(3-(((3R,4S)-3-fluoro-4-((4-(1-(2,2,2-trifluoroethyl)-1H-pyrazol-4-yl)-5-(trifluoromethyl)-pyrimidin-2-yl)amino)piperidin-1-yl)-sulfonyl)benzyl)piperazin-1-yl)phenyl)-piperidine-2,6-dione], in assay [1], the IC50 was < 100 nM. Also, the DC50 in assay [2] was < 0.1 µM. As for `O=C1CCC(N2C(=O)c3cc(F)c(N4CCN(Cc5cccc(S(=O)(=O)N6CC[C@H](Nc7ncc(C(F)(F)F)c(-c8cnn(CC(F)(F)F)c8)n7)[C@H](F)C6)c5)CC4)cc3C2=O)C(=O)N1` (mixture of isomers) [Example 32, Rac-2-(2,6-dioxopiperidin-3-yl)-5-fluoro-6-(4-(3-(((3R,4S)-3-fluoro-4-((4-(1-(2,2,2-trifluoroethyl)-1H-pyrazol-4-yl)-5-(trifluoromethyl)-pyrimidin-2-yl)amino)piperidin-1-yl)sulfonyl)-benzyl)piperazin-1-yl)-isoindoline-1,3-dione], the IC50 in assay [1] lay in the range of 1000 to 10000 nM. Further, the DC50 in assay [2] fell in the range of 0.1 to 0.5 µM. As to `Cn1nc(N2CCC(=O)NC2=O)c2ccc(C3CCN(Cc4cccc(S(=O)(=O)N5CC[C@H](Nc6ncc(C(F)(F)F)c(-c7cnn(CC(C)(C)O)c7)n6)[C@H](F)C5)c4)CC3)cc21` (racemic) [Example 70, Rac-1-(6-(1-(3-(((3R,4S)-3-fluoro-4-((4-(1-(2-hydroxy-2-methylpropyl)-1H-pyrazol-4-yl)-5-(trifluoromethyl)-pyrimidin-2-yl)amino)piperidin-1-yl)-sulfonyl)benzyl)piperidin-4-yl)-1-methyl-1H-indazol-3-yl)dihydro-pyrimidine-2,4(1H,3H)-dione], the IC50 in assay [1] is < 100 nM. Further, in assay [2], the DC50 was < 0.1 µM. For `O=C1CCC(N2C(=O)c3cc(F)c(N4CCN(Cc5cccc(S(=O)(=O)N6CCC(Nc7ncc(C(F)(F)F)c(-c8cnn(CC(F)(F)F)c8)n7)CC6)c5)CC4)cc3C2=O)C(=O)N1` (stereo not shown) [Example 1, 2-(2,6-dioxopiperidin-3-yl)-5-fluoro-6-(4-(3-((4-((4-(1-(2,2,2-trifluoroethyl)-1H-pyrazol-4-yl)-5-(trifluoromethyl)pyrimidin-2-yl)amino)piperidin-1-yl)sulfonyl)benzyl)piperazin-1-yl)isoindoline-1,3-dione], the IC50 in assay [1] was in the range of 100 to 500 nM. In addition, in assay [2], the DC50 lay within 0.1 to 0.5 µM. Turning to `O=C1CCC(c2ccc(N3CCN(Cc4cccc(S(=O)(=O)N5CCC(Nc6ncc(C(F)(F)F)c(-c7cnn(CC(F)(F)F)c7)n6)CC5)c4)CC3)cc2)C(=O)N1` (stereo not shown) [Example 2, 3-(4-(4-(3-((4-((4-(1-(2,2,2-trifluoro-ethyl)-1H-pyrazol-4-yl)-5-(trifluoro-methyl)pyrimidin-2-yl)amino)piperidin-1-yl)sulfonyl)benzyl)piperazin-1-yl)-phenyl)piperidine-2,6-dione], the IC50 in assay [1] was < 100 nM. Moreover, the DC50 in assay [2] was < 0.1 µM. As to `O=C1CCC(N2Cc3cc(C4CN(Cc5cccc(S(=O)(=O)N6CCC(Nc7ncc(C(F)(F)F)c(-c8cnn(CC(F)(F)F)c8)n7)CC6)c5)C4)ccc3C2=O)C(=O)N1` (stereo not shown) [Example 3, 3-(1-oxo-5-(1-(3-((4-((4-(1-(2,2,2-trifluoroethyl)-1H-pyrazol-4-yl)-5-(trifluoromethyl)pyrimidin-2-yl)-amino)-piperidin-1-yl)sulfonyl)-benzyl)azetidin-3-yl)isoindolin-2-yl)piperidine-2,6-dione], the IC50 in assay [1] is < 100 nM. In addition, the DC50 in assay [2] was < 0.1 µM. With `Cn1nc(N2CCC(=O)NC2=O)c2ccc(C3CCN(Cc4cccc(S(=O)(=O)N5CCC(Nc6ncc(C(F)(F)F)c(-c7cnn(CC(F)(F)F)c7)n6)CC5)c4)CC3)cc21` [Example 4, 1-(1-methyl-6-(1-(3-((4-((4-(1-(2,2,2-trifluoroethyl)-1H-pyrazol-4-yl)-5-(trifluoromethyl)pyrimidin-2-yl)amino)-piperidin-1-yl)sulfonyl)-benzyl)-piperidin-4-yl)-1H-indazol-3-yl)dihydro-pyrimidine-2,4(1H,3H)-dione], the IC50 in assay [1] was < 100 nM. Further, the DC50 in assay [2] was < 0.1 µM.

Regarding `Cn1nc(N2CCC(=O)NC2=O)c2ccc(N3CCC(CN4CCN(S(=O)(=O)N5CCC(Nc6ncc(C(F)(F)F)c(-c7cnn(CC(F)(F)F)c7)n6)CC5)CC4)CC3)cc21` [Example 97, 1-(1-methyl-6-(4-((4-((4-((4-(1-(2,2,2-trifluoroethyl)-1H-pyrazol-4-yl)-5-(trifluoromethyl)pyrimidin-2-yl)amino)-piperidin-1-yl)sulfonyl)piperazin-1-yl)-methyl)piperidin-1-yl)-1H-indazol-3-yl)dihydropyrimidine-2,4(1H,3H)-dione], the IC50 in assay [1] is 100 to 500 nM.

Turning to `Cn1nc(N2CCC(=O)NC2=O)c2ccc(C3CCN(CC(C)(C)Cc4cccc(S(=O)(=O)N5CCC(Nc6ncc(C(F)(F)F)c(-c7cnn(CC(F)(F)F)c7)n6)CC5)c4)CC3)cc21` [Example 98, 1-(6-(1-(2,2-dimethyl-3-(3-((4-((4-(1-(2,2,2-trifluoroethyl)-1H-pyrazol-4-yl)-5-(trifluoromethyl)pyrimidin-2-yl)amino)-piperidin-1-yl)sulfonyl)-phenyl)propyl)-piperidin-4-yl)-1-methyl-1H-indazol-3-yl)dihydro-pyrimidine-2,4(1H,3H)-dione], the IC50 in assay [1] was < 100 nM.

(Values after patent US20260274853A1, “BIFUNCTIONAL COMPOUNDS CONTAINING PYRIMIDINE DERIVATIVES FOR DEGRADING CYCLIN-DEPENDENT KINASE 2 VIA UBIQUITIN PROTEASOME PATHWAY” (NIKANG THERAPEUTICS, INC., priority 2022, published 2026).)
